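Cells were grown in 96-well plates and exposed to each compound for 48 hours at five concentrations; endpoints were interpolated linearly between bracketing concentrations, or set to the highest concentration if not reached. Abbreviation: GI50, concentration required for 50% inhibition of growth.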 Active and inactive are the calls of the source. Rule as the data show it: active = GI50 up to about 1.1 µM and inactive = higher. Some results are limits rather than exact numbers.

The source of these data is ChEMBL document CHEMBL1201862, “PubChem BioAssay data set” (2004).

Experiment in all cases: NCI tumour cell line growth inhibition, 48 h
In assay [1] the test system is HCT-15.
In assay [2] the test system is HOP-62.
Assay [3] has as its system Hs-578T.
Assay [4] relates to MDA-N.
For assay [5], the system named is M14.
Assay [6] relates to NCI-H23.
Assay [7] has as its system SF-539.
The subject of assay [8] is IGROV-1.
Assay [9] relates to U-251.
The subject of assay [10] is ACHN.
For assay [11], the system named is SK-MEL-28.
Assay [12] has as its system CCRF-CEM.
Assay [13] relates to K562.
The test system of assay [14] is LOX IMVI.
Assay [15] has as its system HT-29.
The test system of assay [16] is 786-0.
The test system of assay [17] is HCT-116.
Assay [18] concerns MDA-MB-231.
The test system of assay [19] is SNB-19.
Assay [20] concerns BT-549.

In the case of `CC(C)[C@]12O[C@H]1[C@@H]1O[C@@]13[C@@]1(C)CCC4=C(COC4=O)[C@@H]1C[C@@H]1O[C@@]13C2=O` [TRIPTONIDE], the GI50 in assay [1] was 0.0251 µM; in [2], < 0.01 µM (active); in [3] it was < 0.0158 µM (active); in [4], < 0.0113 µM (active); in [5] it was 0.0173 µM (active); in [6] it was < 0.01 µM (active). Also, the GI50 in assay [7] was 0.0171 µM (active); in assay [8], < 0.01 µM (active); in [9], 0.101 µM (active); in [10] it was < 0.01 µM (active); in [11], 0.0126 µM (active); in assay [12], 0.063 µM (active). Further, the GI50 was 0.0128 µM (active) in [13]; < 0.01 µM (active) in assay [14]; < 0.01 µM (active) in assay [15]; 0.0248 µM (active) in [16]; < 0.01 µM (active) in assay [17]; 0.0248 µM (active) in assay [18].

Consider `CCNC(=S)Nc1c(C#N)c2n(c1C(=O)OCC)CCCCC2`, for which the GI50 in assay [1] was over 100 µM; in assay [2], 35.2 µM (inactive); in assay [3], 35.3 µM (inactive); in assay [5] it was > 100 µM (inactive); in assay [6], 69 µM (inactive); in [19], > 100 µM (inactive). The GI50 in assay [7] is 64.7 µM (inactive); in [20] it was 30.9 µM (inactive); in [8], > 100 µM (inactive); in [9], > 100 µM (inactive); in [10] it was > 100 µM (inactive); in [11] it was > 100 µM (inactive). The GI50 in [12] is > 100 µM (inactive); in assay [13], > 100 µM (inactive); in assay [14], > 100 µM (inactive); in [15], > 100 µM (inactive); in assay [16], 76.4 µM (inactive); in [17] it was > 100 µM (inactive). The GI50 in assay [18] was > 100 µM (inactive).

As to `CC(C)(C)OC(=O)CC(NC(=O)OC(C)(C)C)C(=O)N[C@@H]1CCCC[C@H]1C(=O)OCc1ccccc1` (stereo partly specified), the GI50 was 14.8 µM in assay [1]; 27.8 µM (inactive) in assay [2]; 15.7 µM (inactive) in assay [3]; 32.1 µM (inactive) in [4]; 36.1 µM (inactive) in assay [5]; 29.3 µM (inactive) in assay [6]. For the same compound, the GI50 in [19] was 33.3 µM (inactive); in [7], 24.5 µM (inactive); in assay [8], 37 µM (inactive); in assay [9] it was 19.5 µM (inactive); in assay [10] it was 32.7 µM (inactive); in [11], > 100 µM (inactive). The GI50 in assay [12] is 20.8 µM (inactive); in assay [13], 18.4 µM (inactive); in assay [14] it was 29 µM (inactive); in assay [15] it was 17.2 µM (inactive); in assay [16] it was 70.6 µM (inactive); in assay [17] it was 17.5 µM (inactive). The GI50 in [18] was 32.5 µM (inactive).

For `Oc1nnc(-c2ccc(F)cc2)cc1-c1ccccc1`, the GI50 in assay [1] was over 100 µM; in assay [3] it was 48.3 µM (inactive); in [5] it was > 100 µM (inactive); in assay [6], > 100 µM (inactive); in assay [19] it was 44.8 µM (inactive); in [7], 35.9 µM (inactive). For the same compound, the GI50 is 72.8 µM (inactive) in assay [8]; 35.8 µM (inactive) in assay [9]; 57.9 µM (inactive) in [10]; 83.9 µM (inactive) in assay [11]; > 100 µM (inactive) in assay [12]; > 100 µM (inactive) in assay [13]. Further, the GI50 in [14] is > 100 µM (inactive); in [15] it was > 100 µM (inactive); in [16], 45.7 µM (inactive); in assay [17], > 100 µM (inactive); in assay [18] it was > 100 µM (inactive).

As to `Cc1ccc(NC(=O)C2C(=O)N(c3ccc(C)c(C)c3)C(=O)/C2=N/O)cc1C` (stereo unspecified), the GI50 in assay [1] is over 100 µM; in [2] it was > 100 µM (inactive); in assay [5], > 100 µM (inactive); in [6], > 100 µM (inactive); in assay [19] it was > 100 µM (inactive); in assay [7] it was > 100 µM (inactive). Further, the GI50 in [8], in [9], in [10], in assay [11], in assay [12] and in assay [13] was > 100 µM (inactive) each time. The GI50 in assay [14] was 20.9 µM (inactive); in [15], > 100 µM (inactive); in [16] it was 68.1 µM (inactive); in [17] it was > 100 µM (inactive).

Turning to `O=C(O)c1ccc(-c2nc3cc(Cl)ccc3[nH]2)cc1`, the GI50 was over 100 µM in [1]; > 100 µM (inactive) in [2]; > 100 µM (inactive) in assay [3]; > 100 µM (inactive) in assay [5]; > 100 µM (inactive) in assay [19]; > 100 µM (inactive) in [7]. The GI50 in assay [20], in assay [8], in assay [9], in assay [12], in assay [13] and in assay [15] was > 100 µM (inactive) each time. For the same compound, the GI50 in assay [16] and in assay [18] was > 100 µM (inactive) each time.

`O=C1CSC(=O)/C1=C\NNc1nc2ccccc2o1`: the GI50 in assay [1] was 12 µM; in [2] it was 51.8 µM (inactive); in [3], 52.7 µM (inactive); in [4] it was 52.1 µM (inactive); in assay [5], 19.3 µM (inactive); in [6] it was 24.5 µM (inactive). Further, the GI50 in assay [19] is 19.6 µM (inactive); in assay [7], 11.4 µM (inactive); in assay [10] it was 32.6 µM (inactive); in [11], 67 µM (inactive); in assay [12], 1.09 µM (active); in [14] it was 22.4 µM (inactive). For the same compound, the GI50 was 24.7 µM (inactive) in assay [15], 40.2 µM (inactive) in assay [16], 17 µM (inactive) in [17] and 30.9 µM (inactive) in [18].

Consider `CC(C)(C)C1=CC(=N/N=c2\scc(-c3ccccc3)n2-c2ccccc2)C=C(C(C)(C)C)C1=O`, for which the GI50 was over 100 µM in assay [1]; > 100 µM (inactive) in [2]; > 100 µM (inactive) in assay [5]; > 100 µM (inactive) in assay [6]; > 100 µM (inactive) in assay [19]; > 100 µM (inactive) in assay [7]. The GI50 in assay [8], in assay [9], in [10], in [11], in assay [12] and in assay [13] was > 100 µM (inactive) throughout. Further, the GI50 in [14], in assay [15], in assay [16] and in assay [17] was > 100 µM (inactive) in each case.

Consider `Cc1c(Cl)c(=O)oc2cc(OCC(O)COC(C)C)ccc12` (stereo unspecified), for which the GI50 in [2] is 38.7 µM (inactive); in [3], 48.4 µM (inactive); in assay [4], 48.1 µM (inactive); in assay [5], 32.2 µM (inactive); in [6] it was > 100 µM (inactive); in assay [19], > 100 µM (inactive). Further, the GI50 in assay [8] was 65.8 µM (inactive); in [9] it was 44.9 µM (inactive); in [10] it was 44.1 µM (inactive); in assay [11], > 100 µM (inactive); in [12] it was 34.3 µM (inactive); in [13] it was 23.3 µM (inactive). Also, the GI50 in assay [14] is 35 µM (inactive); in [15], 40.2 µM (inactive); in assay [16], 39.9 µM (inactive); in [17], 43 µM (inactive).

With `C=C1c2[nH]c3c([N+](=O)[O-])c(OC)ccc3c2CCN1C(C)=O`, the GI50 in assay [1] was over 100 µM; in assay [2], > 100 µM (inactive); in [5] it was > 100 µM (inactive); in [6], > 100 µM (inactive); in assay [19], > 100 µM (inactive); in assay [7] it was > 100 µM (inactive). In addition, the GI50 in assay [8], in assay [9], in assay [10], in [11], in assay [12] and in assay [13] was > 100 µM (inactive) throughout. For the same compound, the GI50 in [14], in assay [15], in assay [16] and in [17] was > 100 µM (inactive) each time.

On to `O=C(NNc1ccccc1)/C(=C/c1ccc2c(c1)OCO2)NC(=O)c1ccccc1`, for which the GI50 in assay [1] was over 100 µM; in assay [2] it was > 100 µM (inactive); in assay [5], > 100 µM (inactive); in [6], > 100 µM (inactive); in assay [19], > 100 µM (inactive); in assay [7] it was > 100 µM (inactive). In addition, the GI50 in assay [8] is > 100 µM (inactive); in [9] it was 98.4 µM (inactive); in [10], > 100 µM (inactive); in [11], > 100 µM (inactive); in [12], 31 µM (inactive); in [13], > 100 µM (inactive). For the same compound, the GI50 in assay [14] is 41.6 µM (inactive); in assay [15] it was > 100 µM (inactive); in assay [16], > 100 µM (inactive); in [17], > 100 µM (inactive).

As for `c1cc2c(cc1[C@@H]1OC[C@@H]3[C@H]1CO[C@H]3c1ccc3c(c1)OCO3)OCO2`, the GI50 in assay [1] is over 100 µM; in [2], > 100 µM (inactive); in [4], 80.9 µM (inactive); in assay [5] it was 62.8 µM (inactive); in assay [6], 65.9 µM (inactive); in [19] it was > 100 µM (inactive). The GI50 in assay [7] was > 100 µM (inactive); in [8], 87.1 µM (inactive); in assay [9], 60.4 µM (inactive); in assay [10], > 100 µM (inactive); in assay [11] it was > 100 µM (inactive); in [12], 44.8 µM (inactive). Also, the GI50 is 46.8 µM (inactive) in assay [13]; 36.2 µM (inactive) in [14]; 60.8 µM (inactive) in [15]; > 100 µM (inactive) in assay [16]; 26.9 µM (inactive) in assay [17]; 94 µM (inactive) in [18].
